Test results taken from patent US6737383B1, “Herbicidal oxadiazolidines” (priority 1999, dated 2004).

Tests used:
[1] = test system: morningglory; experiment: Test B pre/postemergence morningglory; format: in vivo, Ipomoea hederacea
Method in brief: (§1)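 Response is a visual 0-to-10 score relative to untreated plants, where 0 means no effect and 10 means complete control, taken twelve to sixteen days after application. Treatments went onto soil at planting and onto foliage of 1- to 4-leaf plants, using a surfactant-containing non-phytotoxic solvent.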

[2] = test system: giant foxtail; experiment: Test B pre/postemergence giant foxtail; format: in vivo, Setaria faberii
Method in brief: as §1

[3] = test system: sugar beet; experiment: Test B pre/postemergence sugar beet; format: in vivo, Beta vulgaris
Method in brief: as §1

[4] = test system: smallflower flatsedge; experiment: Test B flood test smallflower flatsedge; format: in vivo, Cyperus difformis
Method in brief: (§2)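 Plants were grown to the 2-leaf stage before treatment with test chemical, then held in a greenhouse for twelve to sixteen days. Injury was visually rated against untreated controls on a 0–10 scale, where 0 is no effect and 10 is complete control.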

[5] = test system: wheat; experiment: Test B pre/postemergence wheat; format: in vivo, Triticum aestivum
Method in brief: as §1

[6] = test system: blackgrass; experiment: Test B pre/postemergence blackgrass; format: in vivo, Alopecurus myosuroides
Method in brief: as §1

[7] = test system: surinam grass; experiment: Test B pre/postemergence surinam grass; format: in vivo, Brachiaria decumbens
Method in brief: as §1

[8] = test system: rice; experiment: Test B flood test rice; format: in vivo, Oryza sativa
Method in brief: as §2

[9] = test system: purple nutsedge; experiment: Test B pre/postemergence purple nutsedge; format: in vivo, Cyperus rotundus
Method in brief: as §1

[10] = test system: bamyardgrass; experiment: Test B flood test barnyardgrass; format: in vivo, Echinochloa crus-galli
Method in brief: as §2

[11] = test system: velvetleaf; experiment: Test B pre/postemergence velvetleaf; format: in vivo, Abutilon theophrasti
Method in brief: as §1

[12] = test system: wild oat; experiment: Test B pre/postemergence wild oat; format: in vivo, Avena fatua
Method in brief: as §1

[13] = test system: crabgrass; experiment: Test B pre/postemergence crabgrass; format: in vivo, Digitaria sanguinalis
Method in brief: as §1

[14] = test system: rape; experiment: Test B pre/postemergence rape; format: in vivo, Brassica napus
Method in brief: as §1

[15] = test system: cocklebur; experiment: Test B pre/postemergence cocklebur; format: in vivo, Xanthium strumarium
Method in brief: as §1

[16] = test system: pigweed; experiment: Test B pre/postemergence pigweed; format: in vivo, Amaranthus retroflexus
Method in brief: as §1

[17] = Preemergence, Rate 62 g/ha, scale of 0 to 10 where 0 is no effect and 10 is complete control
[18] = Preemergence, Rate 250 g/ha, scale of 0 to 10 where 0 is no effect and 10 is complete control
[19] = Preemergence, Rate 500 g/ha, scale of 0 to 10 where 0 is no effect and 10 is complete control
[20] = Rate 62 g/ha, Postemergence, scale 0 to 10 (0 no effect, 10 complete control)
[21] = Rate 125 g/ha, Postemergence, scale of 0 to 10 where 0 is no effect and 10 is complete control
[22] = Rate 125 g/ha, Preemergence, scale of 0 to 10 where 0 is no effect and 10 is complete control
[23] = Rate 250 g/ha, Postemergence, scale of 0 to 10 where 0 is no effect and 10 is complete control
[24] = Rate 500 g/ha, Postemergence, scale 0 to 10, 0 no effect, 10 complete control
[25] = Rate 62 g/ha, headed Pre-emergence (flood test species), scale 0 to 10 (0 no effect, 10 complete control)
[26] = Rate 125 g/ha, Pre-emergence, flood test species, scale 0 to 10 where 0 is no effect and 10 is complete control
[27] = Rate 250 g/ha, Pre-emergence, flood-test species, scale 0 to 10, 0 is no effect, 10 is complete control
[28] = Rate 500 g/ha, Pre-emergence, flood test species, scale 0 to 10 (0 no effect, 10 complete control)

## Cc1ccccc1-n1c(=O)on(C(=O)N(c2ccc3c(c2)CCC3)C(C)C)c1=O [Compound 278]
[1]; [17]
  Morningglory plant response rating: 0
[1]; [18]
  Morningglory plant response rating: 0
[1]; [19]
  Plant response rating, Morningglory: 0
[1]; [20]
  Morningglory plant response rating: 3
[1]; [21]
  Morningglory plant response rating: 3
[1]; [22]
  Morningglory plant response rating: 0
[1]; [23]
  Plant response rating, Morningglory: 4
[1]; [24]
  Morningglory plant response rating: 4
[2]; [17]
  Giant foxtail plant response rating: 0
[2]; [18]
  Giant foxtail plant response rating: 2
[2]; [19]
  Plant response rating, Giant foxtail: 8
[2]; [20]
  Giant foxtail plant response rating: 0
[2]; [21]
  Giant foxtail plant response rating: 0
[2]; [22]
  Giant foxtail plant response rating: 2
[2]; [23]
  Plant response rating, Giant foxtail: 0
[2]; [24]
  Giant foxtail plant response rating: 0
[3]; [17]
  Sugarbeets plant response rating: 0
[3]; [18]
  Sugarbeets plant response rating: 0
[3]; [19]
  Plant response rating, Sugarbeets: 0
[3]; [20]
  Sugarbeets plant response rating: 0
[3]; [21]
  Sugarbeets plant response rating: 0
[3]; [22]
  Sugarbeets plant response rating: 0
[3]; [23]
  Plant response rating, Sugarbeets: 0
[3]; [24]
  Sugarbeets plant response rating: 0
[4]; [25]
  S. Flatsedge plant response rating: 0
[4]; [26]
  S. Flatsedge plant response rating: 0
[4]; [27]
  S. Flatsedge plant response rating: 0
[4]; [28]
  S. Flatsedge plant response rating: 0
[5]; [17]
  Wheat plant response rating: 0
[5]; [18]
  Wheat plant response rating: 0
[5]; [19]
  Plant response rating, Wheat: 0
[5]; [20]
  Wheat plant response rating: 0
[5]; [21]
  Wheat plant response rating: 0
[5]; [22]
  Wheat plant response rating: 0
[5]; [23]
  Plant response rating, Wheat: 0
[5]; [24]
  Wheat plant response rating: 0
[6]; [17]
  Blackgrass plant response rating: 0
[6]; [18]
  Blackgrass plant response rating: 0
[6]; [19]
  Plant response rating, Blackgrass: 0
[6]; [20]
  Blackgrass plant response rating: 0
[6]; [21]
  Blackgrass plant response rating: 0
[6]; [22]
  Blackgrass plant response rating: 0
[6]; [23]
  Plant response rating, Blackgrass: 0
[6]; [24]
  Blackgrass plant response rating: 0
[7]; [17]
  B. signalgrass plant response rating: 0
[7]; [18]
  B. signalgrass plant response rating: 0
[7]; [19]
  Plant response rating, B. signalgrass: 0
[7]; [20]
  B. signalgrass plant response rating: 0
[7]; [21]
  B. signalgrass plant response rating: 0
[7]; [22]
  B. signalgrass plant response rating: 0
[7]; [23]
  Plant response rating, B. signalgrass: 0
[7]; [24]
  B. signalgrass plant response rating: 0
[8]; [25]
  Rice plant response rating: 0
[8]; [26]
  Rice plant response rating: 0
[8]; [27]
  Rice plant response rating: 0
[8]; [28]
  Rice plant response rating: 0
[9]; [18]
  Nutsedge plant response rating: 0
[9]; [20]
  Nutsedge plant response rating: 0
[9]; [21]
  Nutsedge plant response rating: 0
[9]; [22]
  Nutsedge plant response rating: 0
[9]; [23]
  Plant response rating, Nutsedge: 0
[9]; [24]
  Nutsedge plant response rating: 0
[10]; [25]
  Barnyardgrass plant response rating: 0
[10]; [26]
  Barnyardgrass plant response rating: 0
[10]; [27]
  Barnyardgrass plant response rating: 0
[10]; [28]
  Barnyardgrass plant response rating: 0
[11]; [17]
  Velvetleaf plant response rating: 0
[11]; [18]
  Velvetleaf plant response rating: 0
[11]; [19]
  Plant response rating, Velvetleaf: 0
[11]; [20]
  Velvetleaf plant response rating: 0
[11]; [21]
  Velvetleaf plant response rating: 0
[11]; [22]
  Velvetleaf plant response rating: 0
[11]; [23]
  Plant response rating, Velvetleaf: 0
[11]; [24]
  Velvetleaf plant response rating: 2
[12]; [17]
  Wild oats plant response rating: 0
[12]; [18]
  Wild oats plant response rating: 0
[12]; [19]
  Plant response rating, Wild oats: 0
[12]; [20]
  Wild oats plant response rating: 0
[12]; [21]
  Wild oats plant response rating: 0
[12]; [23]
  Plant response rating, Wild oats: 0
[12]; [24]
  Wild oats plant response rating: 0
[13]; [17]
  Crabgrass plant response rating: 0
[13]; [18]
  Crabgrass plant response rating: 2
[13]; [19]
  Plant response rating, Crabgrass: 4
[13]; [20]
  Crabgrass plant response rating: 0
[13]; [21]
  Crabgrass plant response rating: 0
[13]; [22]
  Crabgrass plant response rating: 1
[13]; [23]
  Plant response rating, Crabgrass: 0
[13]; [24]
  Crabgrass plant response rating: 0
[14]; [17]
  Rape plant response rating: 0
[14]; [18]
  Rape plant response rating: 0
[14]; [19]
  Plant response rating, Rape: 0
[14]; [20]
  Rape plant response rating: 0
[14]; [21]
  Rape plant response rating: 0
[14]; [22]
  Rape plant response rating: 0
[14]; [23]
  Plant response rating, Rape: 0
[14]; [24]
  Rape plant response rating: 0
[15]; [17]
  Cocklebur plant response rating: 0
[15]; [18]
  Cocklebur plant response rating: 0
[15]; [19]
  Plant response rating, Cocklebur: 0
[15]; [20]
  Cocklebur plant response rating: 0
[15]; [21]
  Cocklebur plant response rating: 0
[15]; [22]
  Cocklebur plant response rating: 0
[15]; [23]
  Plant response rating, Cocklebur: 0
[15]; [24]
  Cocklebur plant response rating: 3
[16]; [17]
  Redroot pigweed plant response rating: 0
[16]; [18]
  Redroot pigweed plant response rating: 0
[16]; [19]
  Plant response rating, Redroot pigweed: 0
[16]; [20]
  Redroot pigweed plant response rating: 0
[16]; [21]
  Redroot pigweed plant response rating: 0
[16]; [22]
  Redroot pigweed plant response rating: 0
[16]; [23]
  Plant response rating, Redroot pigweed: 0
[16]; [24]
  Redroot pigweed plant response rating: 4
